Consider five compounds from patent US12590063B2, “Phenol derivative” (Sumitomo Pharma Co., Ltd., priority 2020, dated 2026).

For one data set, the system named is Crl:CD(SD) rats. Briefly: Evaluation of taste aversion by drinking water. The data set is classed as in vivo, rat. As to conditions: two-bottle choice, overnight. The protocol: Test Example 3: Evaluation of Taste Aversion by Drinking Water
This test is for evaluating the taste aversion of drugs. The test was carried out by, while keeping Crl:CD(SD) rats (8 rats per group, 8 weeks old at the time of arrival) in home cages, adding the test substance solutions to water bottles. Two water bottles per cage were prepared, each filled with vehicle (sterile water containing 0.05% ethanol) and the test substance solution, and kept overnight, and the amount of water consumed during that period was measured. The proportion of water consumed with the test substance was calculated from the total amount of water consumed from the two water bottles, and the evaluation of taste aversion was carried out. It can be evaluated that the larger the proportion of water consumed with the test substance, the smaller the taste aversion and the smaller the stimulatory properties caused by the test substance.

The test system of data set [1] is normal rats. Put plainly: Evaluation of effect of increasing swallowing in normal rats. The data set is classed as in vivo, rat. As to conditions: anesthetized normal rats; for number of swallowings, Average: pharyngeal infusion 12 ml/h for 10 seconds, counted for 30 seconds. The protocol: Test Example 5: Evaluation of Effect of Increasing Swallowing in Normal Rats
This test is for evaluating the effect of increasing swallowing function of drugs. It has been reported that induction of the swallowing reflex in normal rats using NaCl-containing water suppresses the number of swallows, and the increase in swallowing function was evaluated using a NaCl-containing solvent. After the induction of anesthesia in Crl:CD(SD) male rats (7 to 8 rats per group, 8 to 9 weeks old, body weight 280 to 310 g: at the time of arrival), the animals were sheared under the jaw with clippers and held in a supine position on a heat pad kept at 37° C. to prevent limb movement. A rat sonde was inserted into the animals' mouths, and the tip of the sonde was retained in the pharynx. Under this condition, the test substance administration solution was administered at 12 ml/h for 10 seconds using an infusion pump, and the swallowing movements were measured for 30 seconds from the initiation of administration. Note that the vehicle used was saline solution containing 1% ethanol and 0.1% Tween 80.

Data set [2] deals with normal rats. Briefly: Desensitization of effect of increasing swallowing in normal rats. The data set is classed as in vivo, rat. As to conditions: for number of swallows, Average, First time: 1st of five administrations about 5 minutes apart; for number of swallows, Average, Second time: 2nd of five administrations about 5 minutes apart; for number of swallows, Average, Third time: 3rd of five administrations about 5 minutes apart; for number of swallows, Average, Fourth time: 4th of five administrations about 5 minutes apart; for number of swallows, Average, Fifth time: 5th of five administrations about 5 minutes apart; for number of swallows at repeated administrations compared to the 1st administration (Dunnett's test): five administrations about 5 minutes apart. An excerpt: Test Example 6: Evaluation with Respect to Desensitization of Effect of Increasing Swallowing in Normal Rats
TRPV1 agonists are known to induce TRPV1 desensitization when given at high doses or repeatedly. Using the same method as in Test Example 5, the effect of drugs on normal swallowing function in rats to induce desensitization was investigated. After the induction of anesthesia in Crl:CD(SD) male rats (7 to 8 rats per group, 8 to 9 weeks old, body weight 280 to 310 g: at the time of arrival), the animals were sheared under the jaw with clippers and held in a supine position on a heat pad kept at 37° C. to prevent limb movement. A sonde was inserted into the animals' mouths, and the tip of the sonde was retained in the pharynx. Under this condition, the test substance administration solution was administered at 12 ml/h for 10 seconds using an infusion pump, and the swallowing movements were measured for 30 seconds from the initiation of administration. Thereafter, the same test was performed about 5 minutes later, and the evaluation was repeated for a total of five times. Note that the vehicle used was saline solution containing 1% ethanol and 0.1% Tween 80.

In data set [3] the test system is normal rats. Put plainly: Test for eye stimulatory properties in normal rats. In kind it is in vivo, rat. As to conditions: for Number of eye-wiping (Average ± Standard deviation): 10 μL into the right eye, observed for 1 minute. The protocol: Test Example 7: Evaluation with Respect to Test for Eye Stimulatory Properties in Normal Rats
It has been reported that TRPV1 agonists have stimulatory properties and that administration of TRPV1 agonist solutions to the eye can induce wiping behavior. The stimulatory properties of the compounds were investigated using normal rats. Crl:CD(SD) male rats (5 rats per group, 8 weeks old, body weight 271 to 320 g) were held unanesthetized and 10 μL was dropped into the right eye using a micropipette.

Another data set has as its target T1, Human TRPV1 (Homo sapiens, UniProt Q8NER1).
T1 construct: the TRPV1 gene (GenBank NP_542435.2) had been inserted; expressed in transfected cells; host or cells: HEK293 cells (cat #CCL-82.2, ATCC), transient transfection with pcDNA3.1
Put plainly: Evaluation of agonistic properties using human TRPV1 transiently expressing cells. The data set is classed as cell-based. As to conditions: for EC50: HEK293 cells transiently expressing human TRPV1 and apoaequorin, luminescence signal Rlu (Max-Min), read-out: TRPV1 EC50; for TRPV-1-agonistic activity (in words): evaluation test for TRPV-1-agonistic properties, summary of Tables 3 and 4. A digest of the protocol: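 HEK293 cells transiently co-expressing human TRPV1 and apoaequorin, loaded with 4.5 μM Viviren in HBSS/HEPES/0.1% BSA for 2 h at RT in the dark. Compound-evoked luminescence (465 nm) measured after addition; agonism expressed as Rlu (Max−Min).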

Data set [4] in a line: Evaluation test for metabolic stability to S9. The data set is classed as in vitro ADME. Particulars: liver S9 fraction, 37° C., 15 minutes, final compound concentration 10 nM. A digest of the protocol: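 Compound at 10 nM final incubated with liver S9 fraction in phosphate buffer at 37 °C for 15 min, then quenched in acetonitrile. Remaining compound quantified by LC/MS/MS and expressed as residual rate relative to 0 min.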

Counter-ions that a name gives are not always drawn. Marks after values point to notes of the source that are not given here. Where only a bound is given, the exact number is not on record here.

T1 sequence (Q8NER1 whole entry): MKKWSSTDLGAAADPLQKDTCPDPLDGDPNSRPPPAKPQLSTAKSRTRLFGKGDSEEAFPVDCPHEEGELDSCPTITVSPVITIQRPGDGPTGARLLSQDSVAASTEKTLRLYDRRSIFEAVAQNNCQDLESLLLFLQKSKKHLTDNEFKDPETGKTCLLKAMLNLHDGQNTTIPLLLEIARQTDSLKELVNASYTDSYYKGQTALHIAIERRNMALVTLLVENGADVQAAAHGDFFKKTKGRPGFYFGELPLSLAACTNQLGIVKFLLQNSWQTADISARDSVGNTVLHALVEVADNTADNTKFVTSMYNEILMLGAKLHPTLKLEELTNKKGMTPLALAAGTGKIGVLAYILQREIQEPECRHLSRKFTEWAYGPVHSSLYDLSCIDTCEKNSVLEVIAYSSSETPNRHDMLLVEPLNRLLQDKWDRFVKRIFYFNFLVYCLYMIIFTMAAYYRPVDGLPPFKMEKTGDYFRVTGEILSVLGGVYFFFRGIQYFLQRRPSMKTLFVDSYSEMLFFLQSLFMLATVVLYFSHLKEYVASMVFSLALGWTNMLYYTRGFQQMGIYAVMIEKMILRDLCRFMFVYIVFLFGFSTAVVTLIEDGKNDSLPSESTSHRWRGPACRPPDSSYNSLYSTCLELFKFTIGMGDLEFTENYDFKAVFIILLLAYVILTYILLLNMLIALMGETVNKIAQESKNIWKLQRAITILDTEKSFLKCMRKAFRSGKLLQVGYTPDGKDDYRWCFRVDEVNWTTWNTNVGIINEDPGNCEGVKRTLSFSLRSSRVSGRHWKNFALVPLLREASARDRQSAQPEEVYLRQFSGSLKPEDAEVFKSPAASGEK

Consider `COc1cc(CNC(=O)CCCC/C=C/C(C)C)ccc1O` [Capsaicin, capsaicin, reference compound], for which the figures for the “proportion of water consumed with the test substance (% Vehicle)” value (“proportion of water consumed … (% Vehicle)” for short) in the data set on Crl:CD(SD) rats (0.3 μM in drinking water), in the data set on Crl:CD(SD) rats (1 μM in drinking water) and with Crl:CD(SD) rats (3 μM in drinking water) were 71 % Vehicle, 13 % Vehicle and 9 % Vehicle, respectively. The “number of swallowings compared to the solvent administered group (Dunnett's test)” value in the data set with normal rats [1] is on record as “significantly increased”. Also, the “number of swallowings, Average” value with normal rats [1] is on record as 14.1*. The “number of swallows, Average, First time” value in the data set with normal rats [2] (10 μM) amounted to 18.2. Further, the “number of swallows, Average, Second time” value in the data set with normal rats [2] (10 μM) amounted to 13.2. For the same compound, in the data set on normal rats [2] (10 μM), the “number of swallows, Average, Third time” value is 14. Besides, the “number of swallows, Average, Fourth time” value in the data set on normal rats [2] (10 μM) was 9.7**. Also, the “number of swallows, Average, Fifth time” value with normal rats [2] (10 μM) is reported as 9.5**. Besides, the “number of swallows at repeated administrations compared to the 1st administration (Dunnett's test)” value with normal rats [2] is “significantly reduced at the 4th and 5th administrations”. Besides, the “Number of eye-wiping (Average ± Standard deviation)” value in the data set on normal rats [3] (1 μM) is 2.0 ± 2.3; in the data set on normal rats [3] (3 μM), 0.2 ± 0.4; in the data set on normal rats [3] (10 μM), 6.4 ± 6.3; in the data set with normal rats [3] (30 μM), 6.4 ± 4.4; in the data set with normal rats [3] (100 μM) it was 21.4 ± 9.7. Moreover, in the data set on normal rats [3] (eye drop in unanesthetized rats), the “number of wiping behaviors versus control (Dunnett's test)” value was “significantly increased the number of wiping behaviors at concentrations of 30 μM and more”.

As for `COc1cc(CC(=O)Nc2cccc(-c3cccc(OC(=O)C(C)C)c3)n2)ccc1O` [Example 1, 3-{6-[2-(4-Hydroxy-3-methoxyphenyl)acetamido]pyridin-2-yl}phenyl 2-methylpropanoate], at Human TRPV1, the EC50 (commonly the concentration needed to bring the measured effect to its halfway point) was found to be 2.6 nM. The “TRPV-1-agonistic activity (in words)” value on Human TRPV1 is “stronger TRPV-1-agonistic activity”. Also, the “proportion of water consumed … (% Vehicle)” value in the data set with Crl:CD(SD) rats (1 μM in drinking water) is 90 % Vehicle; in the data set with Crl:CD(SD) rats (3 μM in drinking water), 66 % Vehicle; with Crl:CD(SD) rats (10 μM in drinking water), 35 % Vehicle. Besides, the “Residual rate (%)” value in data set [4] is on record as below 1%. Moreover, the “number of swallowings, Average” value in the data set on normal rats [1] came to 7.6. Further, the “number of wiping behaviors versus control (Dunnett's test)” value in the data set on normal rats [3] (rat, in vivo) was “no significant difference”.

For the compound `COc1cc(CC(=O)Nc2cccc([C@H]3CC[C@@H](OC(=O)C4CCCCC4)CC3)c2)ccc1O` [Example 2, cis-4-{3-[2-(4-Hydroxy-3-methoxyphenyl)acetamido]phenyl}cyclohexyl cyclohexanecarboxylate], on Human TRPV1, the EC50 stood at 4.5 nM and the “TRPV-1-agonistic activity (in words)” value is “stronger TRPV-1-agonistic activity”. Further, the “proportion of water consumed … (% Vehicle)” value in the data set on Crl:CD(SD) rats (1 μM in drinking water) turned out to be 94 % Vehicle. Also, the “proportion of water consumed … (% Vehicle)” value in the data set with Crl:CD(SD) rats (3 μM in drinking water) is recorded as 80 % Vehicle. The “proportion of water consumed … (% Vehicle)” value with Crl:CD(SD) rats (10 μM in drinking water) came to 71 % Vehicle. In addition, the “Residual rate (%)” value in data set [4] is 1%. Moreover, in the data set on normal rats [1], the “number of swallowings compared to the solvent administered group (Dunnett's test)” value was “significantly increased” and the “number of swallowings, Average” value is given as 17.8***. Further, the “number of wiping behaviors versus control (Dunnett's test)” value in the data set on normal rats [3] (rat, in vivo) is recorded as “no significant difference”.

For `COc1cc(CC(=O)Nc2cccc([C@H]3CC[C@@H](OC(C)=O)CC3)c2)ccc1O` [Example 12, cis-4-{3-[2-(4-hydroxy-3-methoxyphenyl)acetamido]phenyl}cyclohexyl acetate], the EC50 at Human TRPV1 was determined as 6.3 nM. The “proportion of water consumed … (% Vehicle)” value in the data set with Crl:CD(SD) rats (1 μM in drinking water) is recorded as 103 % Vehicle; with Crl:CD(SD) rats (3 μM in drinking water), 31 % Vehicle; with Crl:CD(SD) rats (10 μM in drinking water), 22 % Vehicle. The “Residual rate (%)” value in data set [4] was determined as 2%. Moreover, the “number of swallowings, Average” value with normal rats [1] is given as 19.4**. Also, in the data set on normal rats [3] (rat, in vivo), the “number of wiping behaviors versus control (Dunnett's test)” value is listed as “no significant difference”.

For `COc1cc(CC(=O)Nc2ccnc(-c3cccc(OC(=O)C(C)C)c3)c2)ccc1O` [Example 49, 3-{4-[2-(4-Hydroxy-3-methoxyphenyl)acetamido]pyridin-2-yl}phenyl 2-methylpropanoate hydrochloride], in the data set on normal rats [1], the “number of swallowings compared to the solvent administered group (Dunnett's test)” value is “significantly increased” and the “number of swallowings, Average” value was 15.0*. Moreover, in the data set with normal rats [2] (10 μM), the “number of swallows, Average, First time” value stood at 12.3; the “number of swallows, Average, Second time” value was 12.4; the “number of swallows, Average, Third time” value is on record as 12.9; the “number of swallows, Average, Fourth time” value is given as 11.3. The “number of swallows, Average, Fifth time” value in the data set on normal rats [2] (10 μM) worked out at 14.4. For the same compound, in the data set with normal rats [2] (30 μM), the “number of swallows, Average, First time” value is given as 17.1; the “number of swallows, Average, Second time” value was 13.9; the “number of swallows, Average, Third time” value is given as 14.1; the “number of swallows, Average, Fourth time” value was 12.4. Moreover, the “number of swallows, Average, Fifth time” value in the data set with normal rats [2] (30 μM) was found to be 12.7. In the data set with normal rats [2], the “number of swallows at repeated administrations compared to the 1st administration (Dunnett's test)” value is listed as “no significant difference”. The “number of wiping behaviors versus control (Dunnett's test)” value in the data set on normal rats [3] (rat, in vivo) was “no significant difference”.
